Laboratory results: patent publication US20040192771A1, “Ether compounds and compositions for cholesterol management and related uses” (priority 2001, published 2004)
Where two headings read alike, the source gives them in different places.

Assays:
primary rat hepatocytes = assay: Inhibition of lipid synthesis ([1-14C]-acetate incorporation) in primary cultures of rat hepatocytes; assay type: cell-based; settings: Hepatocyte, total lipid synthesis, 4 hours incubation
Protocol: Compounds were tested for inhibition of lipid synthesis in primary cultures of rat hepatocytes. Male Sprague-Dawley rats were anesthetized with intraperitoneal injection of sodium pentobarbital (80 mg/kg). Rat hepatocytes were isolated essentially as described by the method of Seglen (Seglen, P. O. Hepatocyte suspensions and cultures as tools in experimental carcinogenesis. J. Toxicol. Environ. Health 1979, 5, 551-560). Hepatocytes were suspended in Dulbecco's Modified Eagles Medium containing 25 mM D-glucose, 14 mM HEPES, 5 mM L-glutamine, 5 mM leucine, 5 mM alanine, 10 mM lactate, 1 mM pyruvate, 0.2% bovine serum albumin, 17.4 mM non-essential amino acids, 20% fetal bovine serum, 100 nM insulin and 20 μg/mL gentamycin) and plated at a density of 1.5×10^5 cells/cm^2 on collagen-coated 96-well plates. Four hours after plating, media was replaced with the same media without serum. Cells were grown overnight to allow formation of monolayer cultures. Lipid synthesis incubation conditions were initially assessed to ensure the linearity of [1-^14C]-acetate incorporation into hepatocyte lipids for up to 4 hours. Hepatocyte lipid synthesis inhibitory activity was assessed during incubations in the presence of 0.25 μCi [1-^14C]-acetate/well (final radiospecific activity in assay is 1 Ci/mol) and 0, 1, 3, 10, 30, 100 or 300 μM of compounds for 4 hours. At the end of the 4-hour incubation period, medium was discarded and cells were washed twice with ice-cold phosphate buffered saline and stored frozen prior to analysis. To determine total lipid synthesis, 170 μl of MicroScint-E® and 50 μl water was added to each well to extract and partition the lipid soluble products to the upper organic phase containing the scintillant. Lipid radioactivity was assessed by scintillation spectroscopy in a Packard TopCount NXT.

obese female Zucker rats = assay: Oral daily treatment of obese female Zucker rats for fourteen days; serum lipids and glycemic control indicators; assay type: in vivo; settings: Rattus norvegicus, percent change from study prebleed; for change in vivo at 100 mg/kg/day: 100 mg/kg/day oral; for change in vivo at 30 mg/kg/day: 30 mg/kg/day oral
Protocol: In a number of different experiments, illustrative compounds of the invention are administered daily at a dose of up to 100 mg/kg to chow fed obese female Zucker rats for fourteen days in the morning by oral gavage in 1.5% carboxymethylcellulose/0.2% Tween 20 or 20% ethanol/80% polyethylene glycol (dosing vehicles). Animals are weighed daily. Animals are allowed free access to rodent chow and water throughout the study except on days of blood sampling where food is restricted for six hours prior to blood sampling. Blood glucose is determined after the 6 hour fast in the afternoon without anesthesia from a tail vein. Serum is also prepared from pretreatment blood samples subsequently obtained from the orbital venous plexus (with O2/CO2 anesthesia) and following the fourteenth dose at sacrifice from the heart following O2/CO2 anesthesia. Serums are assayed for lipoprotein cholesterol profiles, triglycerides, total cholesterol, Non HDL cholesterol, HDL cholesterol, the ratio of HDL cholesterol to that of Non HDL cholesterol, insulin, non esterified fatty acids, and beta hydroxy butyric acid. The percent body weight gain and the ratio of liver to body weight is also determined. These are shown as absolute values or as a percent change of the pretreatment values in Table C. [drawing 479] [drawing 480]

[1] = 168 h, week 1, read-out: Glucose
[2] = 168 h, week 1, read-out: Insulin
[3] = 168 h, week 1, read-out: Non-HDL-C
[4] = 336 h, week 2, read-out: Glucose
[5] = 336 h, week 2, read-out: Insulin
[6] = 336 h, week 2, read-out: Non-HDL-C

Row | SMILES | IC50 (primary rat hepatocytes) [µM] | change in vivo at 100 mg/kg/day (obese female Zucker rats; [1]) [%] | change in vivo at 100 mg/kg/day (obese female Zucker rats; 168 h, week 1, read-out: HDL-C) [%] | change in vivo at 100 mg/kg/day (obese female Zucker rats; [2]) [%] | change in vivo at 100 mg/kg/day (obese female Zucker rats; [3]) [%] | change in vivo at 100 mg/kg/day (obese female Zucker rats; 168 h, week 1, read-out: TC) [%] | change in vivo at 100 mg/kg/day (obese female Zucker rats; 168 h, week 1, read-out: TG) [%] | change in vivo at 100 mg/kg/day (obese female Zucker rats; [4]) [%] | change in vivo at 100 mg/kg/day (obese female Zucker rats; 336 h, week 2, read-out: HDL-C) [%] | change in vivo at 100 mg/kg/day (obese female Zucker rats; [5]) [%] | change in vivo at 100 mg/kg/day (obese female Zucker rats; [6]) [%] | change in vivo at 100 mg/kg/day (obese female Zucker rats; 336 h, week 2, read-out: TC) [%] | change in vivo at 100 mg/kg/day (obese female Zucker rats; 336 h, week 2, read-out: TG) [%] | change in vivo at 30 mg/kg/day (obese female Zucker rats; 168 h, week 1, read-out: HDL-C) [%] | change in vivo at 30 mg/kg/day (obese female Zucker rats; [2]) [%] | change in vivo at 30 mg/kg/day (obese female Zucker rats; 168 h, week 1, read-out: TC) [%] | change in vivo at 30 mg/kg/day (obese female Zucker rats; 168 h, week 1, read-out: TG) [%] | change in vivo at 30 mg/kg/day (obese female Zucker rats; [4]) [%] | change in vivo at 30 mg/kg/day (obese female Zucker rats; 336 h, week 2, read-out: HDL-C) [%] | change in vivo at 30 mg/kg/day (obese female Zucker rats; [5]) [%] | also measured
1 | CC(CO)(CCCOCCCC(C)(CO)c1ccccc1)c1ccccc1 (centres unmarked) [Compound 110, 5-(5-Hydroxy-4-methyl-4-phenylpentyloxy)-2-methyl-2-phenylpentan-1-ol] | 143 | 12 | 7 | -2 | -32 | -4 | -27 | 10 | 5 | -6 | -26 | -4 | -18 |  |  |  |  |  |  |  | 
2 | CC(CO)(CCCCOCCCCC(C)(CO)c1ccccc1)c1ccccc1 (centres unmarked) [Compound 111, 6-(6-Hydroxy-5-methyl-5-phenylhexyloxy)-2-methyl-2-phenylhexan-1-ol] | 106 |  |  |  |  |  |  |  |  |  |  |  |  | -4 | -37 | -17 | -14 | -18 | -28 | -36 | change in vivo at 30 mg/kg/day (obese female Zucker rats; [3]): -33%; change in vivo at 30 mg/kg/day (obese female Zucker rats; [6]): -1%; change in vivo at 30 mg/kg/day (obese female Zucker rats; 336 h, week 2, read-out: TC): -20%; change in vivo at 30 mg/kg/day (obese female Zucker rats; 336 h, week 2, read-out: TG): -7%
3 | CC(C)(CCCCOCCCCC(C)(C)COC1CCCCO1)COC1CCCCO1 (centres unmarked) [Compound 122, 2-{6-[5,5-Dimethyl-6-(tetrahydropyran-2-yloxy)-hexyloxy]-2,2-dimethylhexyloxy}-tetrahydropyran] | 20 | -7 | 43 | -18 | 46 | 42 | -1 | 9 | 79 | -20 | 92 | 79 | 22 |  |  |  |  |  |  |  | 
4 | CC(C)(CO)CCCCOCCCC(C)(C)CO [Compound 126, 6-(5-Hydroxy-4,4-dimethylpentyloxy)-2,2-dimethylhexan-1-ol] | 17 | 68 | 630 | 240 | -28 | 119 | -63 | 9 | 786 | 145 | -17 | 161 | -58 |  |  |  |  |  |  |  | 
5 | CC(CO)(CCCCOCCCC(C)(CO)c1ccccc1)c1ccccc1 (centres unmarked) [Compound 127, 6-(5-Hydroxy-4-methyl-4-phenylpentyloxy)-2-methyl-2-phenylhexan-1-ol] |  |  |  |  |  |  |  |  |  |  |  |  |  | -2 | 3 | 3 | 0 | -3 | -20 | 0 | change in vivo at 30 mg/kg/day (obese female Zucker rats; [1]): 5%; change in vivo at 30 mg/kg/day (obese female Zucker rats; [6]): 45%; change in vivo at 30 mg/kg/day (obese female Zucker rats; 336 h, week 2, read-out: TC): 2%; change in vivo at 30 mg/kg/day (obese female Zucker rats; 336 h, week 2, read-out: TG): 21%
